Results from patent US7196074B2, “Methods of making, using and pharmaceutical formulations comprising 7α, 11β-dimethyl-17β-hydroxyestra-4, 14-dien-3-one and 17 esters thereof” (The United States of America as represented by the …, priority 2000, dated 2007).

Key:
[1] = system: ventral prostate weight; test: Oral androgenic potency, ventral prostate weight assay in orchidectomized immature rats (gavage daily for seven days); format: in vivo, Sprague-Dawley rats; settings: ventral prostate weight; for oral androgenic activity, times as potent as methyltestosterone: gavage daily for 7 days in 10% ethanol/sesame oil (oily carrier)
Description: (§1) Immature (about 21-day-old) Sprague-Dawley rats were orchidectomized under anesthesia, and randomly assignee to groups of ten animals for each dose level of the active undergoing testing. Each active was dissolved in 10% ethanol/sesame oil and administered by gavage (oral) each day for seven days beginning on the date of the orchidectomy. The animals were sacrificed 24 hours after the last dose, and the ventral prostate and seminal vesicles were excised, cleaned of fat and connective tissue, blotted on moist filter paper and weighed to the nearest 0.1 mg. See, e.g., Hershberger, L. et al, Myotrophic Activity of 19-nortestosterone And Other Steroids Determined By Modified Levator And Muscle Method, Proc. Soc. Exptl. Biol. Med 83 175–180 (1953). Regression analysis was performed by conventional methods using a PROPHET data management system. See, e.g., Bliss, C., The Statistics of Bioassay (Academic Press, New York, 1952); Hollister, C., Nucleic Acids Res. 16 1873–75 (1988). Ventral prostate weight was used as the endpoint because it is the sensitive organ to androgenic stimulation.
as §1, with “(oral) or subcutaneous injection” for “(oral)”, “mg.” for “mg. See, e.g., Hershberger, L. et al, Myotrophic Activity of 19-nortestosterone And Other Steroids Determined By Modified Levator And Muscle Method, Proc. Soc. Exptl. Biol. Med 83 175–180 (1953).”, “system.” for “system. See, e.g., Bliss, C., The Statistics of Bioassay (Academic Press, New York, 1952); Hollister, C., Nucleic Acids Res. 16 1873–75 (1988).”
Immature (about 21-day-old) Sprague-Dawley rats were orchidectomized under anesthesia, and randomly assignee to groups of ten animals for each dose level of the active undergoing testing. Four dosage forms were prepared. The first two forms constituted a solution of each active in 10% ethanol/sesame oil. The third and fourth dosage forms constituted a suspension of each active in an aqueous carrier (as described in Example 2, supra). These dosage forms were then administered by gavage (oral) to separate animal groups each day for seven days beginning on the date of the orchidectomy. Each carrier was also administered (alone) to separate groups of animals as a control. The animals were sacrificed 24 hours after the last dose, and the ventral prostate and seminal vesicles were excised, cleaned of fat and connective tissue, blotted on moist filter paper and weighed to the nearest 0.1 mg. See, e.g., Hershberger, L. et al, Myotrophic Activity of 19-nortestosterone And Other Steroids Determined By Modified Levator And Muscle Method, Proc. Soc. Exptl. Biol. Med. 83 175–180 (1953). Regression analysis was performed by conventional methods using a PROPHET data management system. See, e.g., Bliss, C., The Statistics of Bioassay (Academic Press, New York, 1952); Hollister, C., Nucleic Acids Res. 16 1873–75 (1988). Ventral prostate weight was used as the endpoint because it is the sensitive organ to androgenic stimulation.
Immature (about 21 day old) Sprague male rats were orchidectomized under anesthesia, and randomly assignee to groups often animals for each dose level of the active undergoing testing. Animals were maintained under standard conditions of housing and had free access to food and water. Illumination was controlled for 14 hour periods of light and 10 hours of darkness. Each active was dissolved in 10% ethanol/sesame oil and administered by gavage (oral) each day for seven days beginning on the date of the orchidectomy. […]

[2] = system: ventral prostate weight; test: Subcutaneous androgenic potency, ventral prostate weight assay in orchidectomized immature rats (injection daily for seven days); format: in vivo, Sprague-Dawley rats
Description: as §1, with “(oral) or subcutaneous injection” for “(oral)”, “mg.” for “mg. See, e.g., Hershberger, L. et al, Myotrophic Activity of 19-nortestosterone And Other Steroids Determined By Modified Levator And Muscle Method, Proc. Soc. Exptl. Biol. Med 83 175–180 (1953).”, “system.” for “system. See, e.g., Bliss, C., The Statistics of Bioassay (Academic Press, New York, 1952); Hollister, C., Nucleic Acids Res. 16 1873–75 (1988).”
as §1, with “subcutaneous injection” for “gavage (oral)”, “Bid. Med.” for “Biol. Med”
Immature (about 22-day-old) Sprague-Dawley male rats were orchidectomized under anesthesia, and randomly assignee to groups of ten animals for each dose level of the active undergoing testing. […] Illumination was controlled for 14 hour periods of light and 10 hours of darkness.
Each active was administered by subcutaneous injection of 0.6 mg of test material in aqueous suspending vehicle (ASV) and/or an oily vehicle (10% ethanol/sesame oil) on the day of surgery. Testosterone enanthate in sesame oil was used as a standard. The ventral prostate and seminal vesicles were excised, cleaned of fat and connective tissue, blotted on moist filter paper and weighed to the nearest 0.1 mg. Regression analysis was performed by conventional methods using a PROPHET data management system. Ventral prostate weight was used as the endpoint because it is the sensitive organ to androgenic stimulation.

[3] = gavage daily for 7 days in 10% ethanol/sesame oil

Compound	oral androgenic activity, times as potent as methyltestosterone [1] [times]	oral androgenic potency relative to methyltestosterone in the same aqueous carrier ([1]; gavage daily for 7 days, suspension in aqueous carrier) [times]	subcutaneous androgenic activity relative to testosterone ([2]; subcutaneous injection daily for 7 days in 10% ethanol/sesame oil (oily carrier), ventral prostate weight) [times]	oral androgenic activity, times as potent as testosterone bucyclate (1781 V-1) [1, 3]	oral androgenic activity, times as potent as the free alcohol (1321 D) [1, 3]	oral androgenic activity, times more potent than testosterone (111-C) [1, 3]	oral androgenic activity, times more potent than testosterone enanthate (112a) [1, 3]	activity after subcutaneous administration (in words) ([2]; subcutaneous injection daily for 7 days in 10% ethanol/sesame oil, ventral prostate weight)	Androgenic Potency (activity of corresponding alcohol) ([2]; ventral prostate weight assay following subcutaneous administration, alcohol of G = 1.0 (assigned), value is for the free alcohol of the listed ester)
CCCCCCCCCCC(=O)O[C@H]1CC[C@H]2[C@H]3[C@H]([C@@H](C)C[C@]12C)[C@H]1CCC(=O)C=C1C[C@H]3C [Compound II, 7α,11β-dimethyl-17β-hydroxyestr-4-en-3-one 17-undecanoate]	2.36	0.95	0.52	–	–	–	–	–	–
CCCC[C@H]1CC[C@H](C(=O)O[C@H]2CC[C@H]3[C@H]4[C@H]([C@@H](C)C[C@]23C)[C@H]2CCC(=O)C=C2C[C@H]4C)CC1 (relative stereo) [Compound I, 7α,11β-Dimethyl-17β-hydroxy-4-estren-3-one 17β-trans-4-n-butylcyclohexane carboxylate]	3.77	–	–	at least 4 times	at least 4 times	10–100 times	10–100 times	relatively weak activity	19.3
